Laboratory results from ChEMBL document CHEMBL1909046, “DrugMatrix in vitro pharmacology data”.

Assays:
[1] = DRUGMATRIX: Interleukin IL-1 radioligand binding (ligand: [125I] interleukin 1beta); type: cell membranes, Membrane; details: nih3t3; Not Active = under 50% inhibition at 10 µM
[2] = DRUGMATRIX: Serotonin (5-Hydroxytryptamine) 5-HT3 radioligand binding (ligand: [3H] GR-65630); type: cell membranes, Membrane; details: hek293; Not Active = under 50% inhibition at 10 µM
[3] = molecular target: T1, Muscarinic acetylcholine receptor M5 (Homo sapiens, UniProt P08912); type: cell membranes, CHO-K1, Membrane; details: cho-k1; further: in other assays of this panel Not Active means under 50% inhibition at 10 µM
T1 sequence (P08912 whole entry): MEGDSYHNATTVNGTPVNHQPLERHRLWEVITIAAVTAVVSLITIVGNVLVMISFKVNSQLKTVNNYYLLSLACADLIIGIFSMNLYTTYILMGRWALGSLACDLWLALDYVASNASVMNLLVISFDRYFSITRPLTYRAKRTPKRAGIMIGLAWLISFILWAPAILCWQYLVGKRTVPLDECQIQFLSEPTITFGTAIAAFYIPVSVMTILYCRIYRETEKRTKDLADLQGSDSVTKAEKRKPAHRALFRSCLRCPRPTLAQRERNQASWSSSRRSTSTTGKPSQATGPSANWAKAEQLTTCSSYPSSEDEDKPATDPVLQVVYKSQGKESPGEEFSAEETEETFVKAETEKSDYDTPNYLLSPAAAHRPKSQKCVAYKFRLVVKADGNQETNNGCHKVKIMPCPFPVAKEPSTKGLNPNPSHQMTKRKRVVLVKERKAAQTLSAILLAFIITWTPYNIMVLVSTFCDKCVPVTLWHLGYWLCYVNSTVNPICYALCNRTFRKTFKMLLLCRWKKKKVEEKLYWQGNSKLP

[4] = molecular target: T2, Alpha-2C adrenergic receptor (Homo sapiens, UniProt P18825); assay: DRUGMATRIX: Adrenergic Alpha-2C radioligand binding (ligand: [3H] MK-912); type: cell membranes, Sf9, Membrane
T2 sequence (P18825 whole entry): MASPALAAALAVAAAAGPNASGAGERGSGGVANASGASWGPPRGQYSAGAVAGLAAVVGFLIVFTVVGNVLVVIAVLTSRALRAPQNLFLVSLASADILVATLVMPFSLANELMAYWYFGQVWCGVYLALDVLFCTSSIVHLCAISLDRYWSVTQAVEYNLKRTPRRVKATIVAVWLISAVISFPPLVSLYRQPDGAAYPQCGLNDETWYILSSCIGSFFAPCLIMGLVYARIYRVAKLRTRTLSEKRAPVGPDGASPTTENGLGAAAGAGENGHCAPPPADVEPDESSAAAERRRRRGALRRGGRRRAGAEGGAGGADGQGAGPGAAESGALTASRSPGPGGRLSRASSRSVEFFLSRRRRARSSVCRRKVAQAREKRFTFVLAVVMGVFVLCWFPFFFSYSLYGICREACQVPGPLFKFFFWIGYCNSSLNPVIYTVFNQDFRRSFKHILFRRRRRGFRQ

[5] = molecular target: T3, Thromboxane-A synthase (Homo sapiens, UniProt P24557); assay: biochemical; type: tissue-based, Platelet;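 further: enzyme inhibition assay with PGH2 supplied as substrate; in other assays of this panel Not Active means under 50% inhibition at 10 µM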
T3 sequence (P24557 whole entry): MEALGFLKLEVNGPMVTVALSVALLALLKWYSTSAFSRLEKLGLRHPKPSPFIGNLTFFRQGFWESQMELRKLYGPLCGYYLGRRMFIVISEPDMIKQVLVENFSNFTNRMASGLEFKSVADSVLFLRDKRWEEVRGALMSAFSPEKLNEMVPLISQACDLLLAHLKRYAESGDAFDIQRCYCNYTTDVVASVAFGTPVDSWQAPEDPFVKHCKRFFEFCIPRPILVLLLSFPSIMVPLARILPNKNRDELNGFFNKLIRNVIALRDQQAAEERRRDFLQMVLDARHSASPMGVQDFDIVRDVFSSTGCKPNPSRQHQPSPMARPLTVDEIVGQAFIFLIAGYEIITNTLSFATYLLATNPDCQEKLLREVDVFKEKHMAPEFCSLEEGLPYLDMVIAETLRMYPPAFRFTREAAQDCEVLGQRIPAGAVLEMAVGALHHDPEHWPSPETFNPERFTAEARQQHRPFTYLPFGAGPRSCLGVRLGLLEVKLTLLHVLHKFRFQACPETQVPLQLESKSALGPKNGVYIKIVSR

## CCC(C)(C)C(=O)O[C@H]1C[C@@H](C)C=C2C=C[C@H](C)[C@H](CC[C@@H]3C[C@@H](O)CC(=O)O3)[C@H]21 [SIMVASTATIN]
[1]
  IC50: Not Active
  Ki: Not Active
[2]
  IC50: Not Active
  Ki: Not Active
[3]
  IC50: Not Active
[4]; sf9
  IC50: Not Active
[5]; platelet
  IC50: Not Active

## Cc1ccc(S(=O)(=O)NC(=O)NN2CCCCCC2)cc1 [TOLAZAMIDE]
[1]
  IC50: Not Active
  Ki: Not Active
[2]
  IC50: Not Active
  Ki: Not Active
[3]
  IC50: Not Active
[4]; sf9
  IC50: Not Active
[5]; platelet
  IC50: Not Active

## CC(Cl)(Cl)Cl [TRICHLOROETHANE]
[1]
  IC50: Not Active
  Ki: Not Active
[2]
  IC50: Not Active
  Ki: Not Active
[3]
  IC50: Not Active
[4]; sf9
  IC50: Not Active
[5]; platelet
  IC50: Not Active

## CC(C)(C)NC[C@H](O)COc1cccc2c1CCCC2=O [LEVOBUNOLOL]
[1]
  IC50: Not Active
  Ki: Not Active
[2]
  IC50: Not Active
  Ki: Not Active
[3]
  IC50: Not Active
[4]; sf9
  IC50: Not Active
[5]; platelet
  IC50: Not Active

## CCN1CCCC1CNC(=O)c1cc(S(N)(=O)=O)ccc1OC (stereo unspecified) [SULPIRIDE]
[1]
  IC50: Not Active
  Ki: Not Active
[2]
  IC50: Not Active
  Ki: Not Active
[3]
  IC50: Not Active
[4]; sf9
  IC50: Not Active
[5]; platelet
  IC50: Not Active

## Cc1cccc(C)c1NC(=O)C(C)N (stereo unspecified) [TOCAINIDE]
[1]
  IC50: Not Active
  Ki: Not Active
[2]
  IC50: Not Active
  Ki: Not Active
[3]
  IC50: Not Active
[4]; sf9
  IC50: Not Active
[5]; platelet
  IC50: Not Active

## CCOC(=O)C1=C(C)NC(C)=C(C(=O)OCC)C1c1ccccc1/C=C/C(=O)OC(C)(C)C [LACIDIPINE]
[1]
  IC50: Not Active
  Ki: Not Active
[2]
  IC50: Not Active
  Ki: Not Active
[3]
  IC50: Not Active
[4]; sf9
  IC50: Not Active
[5]; read-out: IC50
  IC50: 1690 nM

## C=CCc1ccc2c(c1)OCO2 [SAFROLE]
[1]
  IC50: Not Active
  Ki: Not Active
[2]
  IC50: Not Active
  Ki: Not Active
[3]
  IC50: Not Active
[4]; sf9
  IC50: Not Active
[5]; platelet
  IC50: Not Active

## O=C(OC[C@H]1O[C@@H](OC(=O)c2cc(O)c(O)c(OC(=O)c3cc(O)c(O)c(O)c3)c2)[C@H](OC(=O)c2cc(O)c(O)c(OC(=O)c3cc(O)c(O)c(O)c3)c2)[C@@H](OC(=O)c2cc(O)c(O)c(OC(=O)c3cc(O)c(O)c(O)c3)c2)[C@@H]1OC(=O)c1cc(O)c(O)c(OC(=O)c2cc(O)c(O)c(O)c2)c1)c1cc(O)c(O)c(OC(=O)c2cc(O)c(O)c(O)c2)c1 [TANNIC ACID]
[1]
  IC50: Not Active
  Ki: Not Active
[2]
  IC50: Not Active
  Ki: Not Active
[3]
  IC50: Not Active
[4]; sf9
  IC50: Not Active
[5]; read-out: IC50
  IC50: 325 nM

## CO[C@@]12[C@H](COC(N)=O)C3=C(C(=O)C(C)=C(N)C3=O)N1C[C@@H]1N[C@@H]12 [MITOMYCIN]
[1]
  IC50: Not Active
  Ki: Not Active
[2]
  IC50: Not Active
  Ki: Not Active
[3]
  IC50: Not Active
[4]; sf9
  IC50: Not Active
[5]; platelet
  IC50: Not Active

## CN1C[C@H](CNC(=O)OCc2ccccc2)C[C@@H]2c3cccc4c3c(cn4C)C[C@H]21 [METERGOLINE]
[1]
  IC50: Not Active
  Ki: Not Active
[2]
  IC50: Not Active
  Ki: Not Active
[3]
  IC50: Not Active
[4]; read-out: IC50
  IC50: 189 nM
[4]; read-out: Ki
  Ki: 27 nM
[5]; platelet
  IC50: Not Active

## Cc1[nH]c(=O)c(C#N)cc1-c1ccncc1 [MILRINONE]
[1]
  IC50: Not Active
  Ki: Not Active
[2]
  IC50: Not Active
  Ki: Not Active
[3]
  IC50: Not Active
[4]; sf9
  IC50: Not Active
[5]; platelet
  IC50: Not Active

## O=C1CC[C@@]2(O)[C@H]3Cc4ccc(O)c5c4[C@@]2(CCN3CC2CC2)[C@H]1O5 [NALTREXONE]
[1]
  IC50: Not Active
  Ki: Not Active
[2]
  IC50: Not Active
  Ki: Not Active
[3]
  IC50: Not Active
[4]; sf9
  IC50: Not Active
[5]; platelet
  IC50: Not Active

## COC(=O)Nc1nc2ccc(C(=O)c3ccccc3)cc2[nH]1 [MEBENDAZOLE]
[1]
  IC50: Not Active
  Ki: Not Active
[2]
  IC50: Not Active
  Ki: Not Active
[3]
  IC50: Not Active
[4]; sf9
  IC50: Not Active
[5]; platelet
  IC50: Not Active

## CC(=O)O[C@]1(C(C)=O)CC[C@H]2[C@@H]3C[C@H](C)C4=CC(=O)CC[C@]4(C)[C@H]3CC[C@@]21C [MEDROXYPROGESTERONE ACETATE]
[1]
  IC50: Not Active
  Ki: Not Active
[2]
  IC50: Not Active
  Ki: Not Active
[3]
  IC50: Not Active
[4]; sf9
  IC50: Not Active
[5]; platelet
  IC50: Not Active

## Cc1cn([C@H]2C=C[C@@H](CO)O2)c(=O)[nH]c1=O [STAVUDINE]
[1]
  IC50: Not Active
  Ki: Not Active
[2]
  IC50: Not Active
  Ki: Not Active
[3]
  IC50: Not Active
[4]; sf9
  IC50: Not Active
[5]; platelet
  IC50: Not Active

## Cc1cnc(NC(=O)C2=C(O)c3ccccc3S(=O)(=O)N2C)s1 [MELOXICAM]
[1]
  IC50: Not Active
  Ki: Not Active
[2]
  IC50: Not Active
  Ki: Not Active
[3]
  IC50: Not Active
[4]; sf9
  IC50: Not Active
[5]; platelet
  IC50: Not Active

## CC(O)C(=O)O (stereo unspecified) [LACTIC ACID]
[1]
  IC50: Not Active
  Ki: Not Active
[2]
  IC50: Not Active
  Ki: Not Active
[3]
  IC50: Not Active
[4]; sf9
  IC50: Not Active
[5]; platelet
  IC50: Not Active

## C1CCN2C[C@@H]3C[C@@H](CN4CCCC[C@@H]34)[C@H]2C1 [SPARTEINE]
[1]
  IC50: Not Active
  Ki: Not Active
[2]
  IC50: Not Active
  Ki: Not Active
[3]
  IC50: Not Active
[4]; sf9
  IC50: Not Active
[5]; platelet
  IC50: Not Active

## CC(N)C12CC3CC(CC(C3)C1)C2 (stereo unspecified) [RIMANTADINE]
[1]
  IC50: Not Active
  Ki: Not Active
[2]
  IC50: Not Active
  Ki: Not Active
[3]
  IC50: Not Active
[4]; sf9
  IC50: Not Active
[5]; platelet
  IC50: Not Active
